Reference: patent EP4644377A1, “LIPID COMPOUND FOR GENE DELIVERY AND LIPID NANOPARTICLE COMPRISING SAME” (NANJING CYBERNAX BIOMEDICAL TECHNOLOGY CO., LTD., priority 2022, dated 2024)

Experiments:
C57Bl/6 mice = test: Luciferase mRNA delivery in mice, IVIS chemiluminescence; type: in vivo
Method: The animal experiments were reviewed and approved by the Ethics Committee of Zhejiang Medical College and the Ethics Committee of Zhejiang University of Technology. 6- to 8-week-old male C57Bl/6 mice were randomly grouped with 3 mice in each group. The mice in each group received a lipid nanoparticle coating mRNA expressing a luciferase via tail vein injection at a dose of 0.25 mg/kg mouse body weight (calculated by the mass of coated mRNA). […] The mRNA delivery effect of the lipid nanoparticle is quantitatively compared through a total chemiluminiscence quantity (Total Flux p/s) of a mouse whole body within unit time (shown in Table 5).
Table 13 and Table 14 show whole body chemiluminescent signals when LNPs (formulation 2) composed of the lipids in some examples deliver Flue mRNA in mice. The delivery dose of Flue mRNA was 0.25 mg/kg. 6 h after LNP injection, 150 mg/kg of D-luciferin was intraperitoneally injected into the mice, and then the whole body chemiluminescent signals were collected in the IVIS imaging system after 10 min. […]

[1] = Particle size detection of LNP (Brookhaven NanoBrook Omni, DLS); type: physicochemical
Method: Step 1. Preparation of a lipid solution and a nucleic acid solution: unless otherwise specified, all aqueous solutions involved in examples were prepared from deionized water without nucleases. An ionizable lipid, a phospholipid (disaturated phosphatidylcholine (DSPC) or dioleoylphosphatidylethanolamine (DOPE)), cholesterol and a PEG lipid (DMG-PEG2000) were mixed in a molar ratio of 50/10/38.5/1.5 (containing DSPC, formulation 1) or 36.5/16/46.5/2.5 (containing DOPE, formulation 2) and dissolved into an ethanol solution. Meanwhile, a nucleic acid (a mass ratio of ionizable lipid/nucleic acid was 10/1) was dissolved into a citrate buffer solution of pH=3, so that a final volume ratio of the ethanol solution to the citrate solution was 1/3.
Step 2. Preparation of LNP by mixing the lipid solution with the nucleic acid solution: the lipid ethanol solution and the nucleic acid aqueous solution that were prepared in Step 1 were respectively put into a sterile syringe and placed in a Precision Nanosystem Ignite instrument, the extrusion flow speeds of the ethanol solution and the water phase solution were respectively set as 3 ml/min and 9 ml/min in instrument program settings. A microfluidic chip was inserted into the instrument and LNP preparation was initiated, and then a solution mixed by the chip was collected.
Step 2.1. Preparation of an LNP solution coating nucleic acid in a porous plate: a solution of an ionizable lipid, a phospholipid (DSPC or DOPE), cholesterol and a PEG lipid (DMG-PEG2000) in ethanol was added into each well of a 96-well deep plate, so that a molar ratio of four component lipids in each well was 50/10/38.5/1.5 (containing DSPC, formulation 1) or 36.5/16/46.5/2.5 (containing DOPE, formulation 2). Then, a citrate buffer solution (pH=3, the mass of nucleic acid added into each well was 1/10 that of the ionizable lipid in this well) that was three times as ethanol in volume and dissolved with a nucleic acid molecule was quickly added into the well plate through a multi-channel pipette or an automatic liquid dispensing system and rapidly mixed, so as to obtain the LNP solution coating nucleic acid.
Step 3. Purification of the LNP solution: the LNP solution collected in Step 2 or Step 2.1 was subjected to dialysis-concentration-filtration operations, so as to obtain a final LNP solution coating nucleic acid for subsequent testing.
The LNP solution coating nucleic acid obtained in Step 3 was diluted so that the final lipid concentration was between 0.01 mg/ml and 0.1 mg/ml. The diluted solution was added into a sample reservoir, and then subjected to particle size detection in a Brookhaven NanoBrook Omni instrument.

293T cells [2] = test: In vitro eGFP plasmid DNA transfection; type: cell-based; conditions: 100 ng plasmid DNA per well, 48 h, fluorescence microscope, versus lipofectamine 3000
Method: 293T cells were inoculated into a 96-well cell culture plate at a density of 40,000 cells per well, LNPs prepared from lipid 284 and lipid 424 was used to coat plasmid DNA expressing eGFP, lipofectamine 3000 was used as a control group, 100 ng of plasmid DNA coated by the above vehicle was given to cells per well, the expression of eGFP was observed through a fluorescence microscope after co-culture for 48 h.

[3] = tested on: enhanced green fluorescent protein (EGFP) gene; test: LNP delivery of gene editing system (spCas9 mRNA + sgGFP), GFP knockout by flow cytometry; type: cell-based; conditions: HEK 293/eGFP-aavs1 cells, 200 ng total RNA per well, 48 h, average
Method: LNPs were prepared by using a composition ratio in formulation 2 and simultaneously coating spCas9 mRNA and sgRNA (sgGFP sequence: […]) with lipid 284, wherein N/P was 6, and a mass ratio of mRNA to sgRNA was 3/1. By DLS detection, the particle size of LNP was about 130 nm, PDI was 0.15, and the RNA encapsulation efficiency was greater than 95%. An HEK 293/eGFP-aavs1 stable cell line stably expressing a green fluorescence protein (GFP) was inoculated into a 96-well cell culture plate at a density of 40,000 cells per well. After incubation for 24 h, LNPs containing 200 ng of total RNA were added into each well, cells were collected after 48 h and the knockout efficiency cells of GFP were detected on a flow cytometer.

[4] = Determination of total nucleic acid and encapsulation efficiency (Quant-iT RiboGreen RNA kit); type: physicochemical
Method: The content of nucleic acids in an LNP sample was determined through a Quant-iT™ RiboGreen® RNA detection kit (Thermofisher). The detection of total RNA concentration: 5 µl of to-be-detected sample was placed into 2 ml of ep tube, 245 µl of 1xTE Buffer was added, and the above materials were evenly mixed to obtain a "diluted sample". 100 µl of the above "diluted sample" was taken, 100 µl of 10% TritonX-100 solution was added, the above materials were sufficiently and evenly mixed, and then the obtained mixture was demulsified for 15 min in metal bath under the conditions of 37°C and 300 rpm; and 80 µl of 1xTE Buffer was added into an ELISA plate, 20 µl of demulsified sample was taken and added into the ELISA plate to be evenly mixed, and then 100 µl of fluorescence dye (2000-fold dilution) solution was added.
Detection of free RNA concentration: 90 µl of 1xTE Buffer was added into the ELISA plate, 10 µl of the above "diluted sample" was taken, and 100 µl of fluorescence dye (2000-fold dilution) solution was added.
Meanwhile, a series of standard solutions having different concentrations were set in the ELISA plate as quantitative standard curves. The samples were loaded onto the ELISA plate to detect fluorescence signals (with an excitation wavelength of 480 nm and an emission detection wavelength of 520). A corresponding RNA concentration was obtained after the fluorescence signal in each well was converted via the standard curve.
Calculation method of encapsulation efficiency: EE(%) = (Concentration of total mRNA−concentration of free mRNA)/(Concentration of total mRNA)∗100% [formula]

A549 cells = test: In vitro delivery of luciferase mRNA by LNPs, A549 cells; type: cell-based, human; conditions: 100 ng luciferase mRNA per well, 24 h; ratio to naked mRNA control; result in words
Method: (§1) Human embryonic kidney cells (293T cells) and human non-small cell lung cancer cell lines (A549 cells) were obtained from the Chinese Type Culture Collection Center and cultured in DMEM high glucose culture medium containing 10% fetal bovine serum under the environment of 37°C and 5% CO2. The cells were inoculated in a 96-well cell culture plate in a density of 32,000 cells per well. LNPs coating mRNA expressing luciferase (Trilink, USA) were taken and added into the wells at a dose of 100 ng of mRNA per well. Meanwhile, control wells were set on each culture plate, and 100 ng of naked mRNA that was not coated by LNPs was added into each well. The cell culture plate was placed in a cell incubator for 24 h of co-culture under the conditions of 37°C and 5% CO2, and then the transfection effect of mRNA was detected through a One-LumiTM firefly luciferase reporter gene detection kit. The transfection results of LNPs in 293T cells are shown in FIG. 1 to FIG. 6 and FIG. 13 (upper), and the transfection results of LNPs in A549 cells are shown in FIG. 7 to FIG. 12 and FIG. 13 (lower). The transfection efficiency is expressed as a ratio of chemiluminescent intensity of LNP group to chemiluminescent intensity of control group (direct delivery of naked luciferase mRNA that is not coated by LNP).

[5] = tested on: respiratory syncytial virus (RSV); test: RSV mRNA vaccine in mice, RSV true virus neutralizing antibody titers; type: in vivo, BALB/c mice; conditions: 10 µg per mouse i.m., two immunizations three weeks apart, serum 14 days after the second; result in words versus antigen protein or SM102
Method: An RSV antigen mRNA sequence with a pre-fusion F protein conformation was prepared by a cap analogue co-transcription method, the sequence information is as shown in sequence 1 (SEQ ID NO: 1), and the amino acid sequence of the expressed antigen protein is as shown in sequence 2 (SEQ ID NO: 2). LNPs containing RSV-mRNA were prepared by respectively using lipid 174 and sm102 in a lipid ratio of formulation 1, wherein N/P was 6. The particle sizes and mRNA encapsulation efficiency data of two LNPs are as follows: lipid 174 has a particle size of 77.6 nm and an encapsulation efficiency of 96.2%; and sm102 has a particle size of 96.1 nm and an encapsulation efficiency of 97.9%. The LNP preparation encapsulating RSV mRNA and an F protein antigen with a pre-fusion conformation were intramuscularly administrated to BALB/c mice at a dose of 10 µg per mouse, with immunization once every three weeks for two immunizations in total. 14 days after secondary immunization, mouse serum was collected and submitted to CRO for detection of RSV true virus neutralizing antibody titers.

293T cells [6] = test: In vitro delivery of luciferase mRNA by LNPs, 293T cells; type: cell-based, Human; conditions: 100 ng luciferase mRNA per well, 24 h; ratio to naked mRNA control; result in words
Method: as §1

[7] = LNP formulation 2 (SM102: formulation 1), luciferase mRNA 0.25 mg/kg, tail vein, C57Bl/6 mice, whole body signal 6 h after LNP, 10 min after D-luciferin 150 mg/kg i.p.
[8] = formulation 2, spCas9 mRNA and sgRNA 3/1, N/P 6, DLS
[9] = LNP with RSV-mRNA, lipid ratio of formulation 1, N/P 6
[10] = LNPs after coating mRNA (luciferase)

Row | SMILES | Chemiluminescent signal (p/s) (C57Bl/6 mice; [7]) | PDI [1, 8] | particle size of LNP [1, 8] | eGFP expression (delivery efficiency and positive cell ratio) (293T cells [2]) | cells with significant knockdown of GFP expression [3] | RNA encapsulation efficiency ([4]; formulation 2, spCas9 mRNA and sgRNA 3/1, N/P 6) | transfection (delivery) efficiency of LNP in A549 cells (A549 cells) | Particle size [1, 9] | PDI [1, 10] | Particle size [1, 10] | RSV true virus neutralizing antibody titer [5] | transfection (delivery) efficiency of LNP in 293T cells (293T cells [6]) | encapsulation efficiency [4, 9] | Chemiluminescent signal (p/s) (C57Bl/6 mice; LNPs (formulation 2), Flue mRNA 0.25 mg/kg, tail vein injection, whole body signal 6 h after LNP injection, 10 min after 150 mg/kg D-luciferin i.p.)
1 | CCCCCCCCCCCCCC(=O)N(CCCN(C)C)C(C(=O)NCCCCCCOC(=O)C(CCCCCC)CCCCCCCC)C(C)(C)C (stereo not drawn) [Lipid 284] | 2.42E+10 p/s | 0.15 | about 130 nm | delivery efficiencies and positive cell ratios exceed those in control group lipofectamine3000 | 41.2% | greater than 95% |  |  |  |  |  |  |  | 
2 | CCCCCCCCCCCCCC(=O)N(CCCN(C)C)C(C(=O)NCCCCCCCC(=O)OC(CCCCCCCC)CCCCCCCC)C(C)(C)C (stereo not drawn) [Lipid 174] | 3.15E+09 p/s |  |  |  |  |  | relatively high delivery efficiency | 77.6 nm | 0.17 | 202.44 ± 2.28 nm·days | can efficiently stimulate the mouse to generate a neutralizing antibody targeting RSV | relatively high delivery efficiency | 96.2% | 
3 | CCCCCCCCC(CCCCCC)C(=O)OCCCCCCNC(=O)C(N(CCCN(C)C)C(=O)CCCCCCC(=O)OCC(C)CCCCCCC)C(C)(C)C (stereo not drawn) [Lipid 424] |  |  |  | delivery efficiencies and positive cell ratios exceed those in control group lipofectamine3000 |  |  |  |  | 0.11 | 153 ± 2.11 nm·days |  |  |  | 8.40E+ 10 p/s
4 | CC/C=C\C/C=C\C/C=C\C/C=C\C/C=C\CCCC(=O)N(CCCN(C)C)C(C(=O)NCCCCCCCCCCCCCC)C(C)(C)C (stereo not drawn) [Lipid 157] | 4.26E+09 p/s |  |  |  |  |  | relatively high delivery efficiency |  |  |  |  | relatively high delivery efficiency |  | 
